PMC7999318 (International Journal of Molecular Sciences, 2021)

Assays:
[1] = tested on: ELuc-HepG2 cells
[2] = tested on: CYPs-ELuc-HepG2 cells
[3] = tested on: ELuc-HepG2 cells; remark: listed apart in the source
[4] = tested on: CYPs-ELuc-HepG2 cells; remark: listed apart in the source
[5] = tested on: ELuc-HepG2 cells; remark: listed apart in the source
[6] = tested on: CYPs-ELuc-HepG2 cells; remark: listed apart in the source
[7] = tested on: CYPs-HepG2 cells; conditions: cited from earlier work
[8] = tested on: wild-type HepG2 cells; conditions: cited from earlier work

Compound | bioluminescence intensity [1] | bioluminescence intensity [2] | bioluminescence intensity in real time [5] | bioluminescence intensity in real time [6] | cytotoxicity [7] | cytotoxicity [8] | also measured
Nn1nnc2ccccc21 [ABT, 1-aminobenzotriazole] | not affected | not affected | – | – | – | – | –
OC[C@@H](O)[C@@H](O)[C@H](O)[C@H](O)CO [D-mannitol] | no remarkable changes | no remarkable changes | – | – | – | – | viability by WST-1 assay [3]: no remarkable changes; bioluminescence intensities during long-term culture [2]: no significant changes; viability by WST-1 assay [4]: no remarkable changes
CCCCCCCCCCCCOS(=O)(=O)[O-].[Na+] [SDS, sodium dodecyl sulfate] | – | – | – | – | – | – | concentration-response curves compared with ELuc-HepG2 cells (bioluminescence) ([2]; 3 days): very similar concentration-response curves
COc1cc(NC(C)CCCN)c2ncccc2c1 (centres unmarked) [primaquine] | – | – | Time- and concentration-dependent decreases | much faster decrease | – | – | time at which the first IC50 value was noted [5]: 22 h; decrease of bioluminescence intensity under CYP2D6 inhibitor [6]: partially abolished; time at which the first IC50 value was noted [6]: 12 h
COc1cc2c(c3oc4cccc(O)c4c(=O)c13)[C@@H]1C=CO[C@@H]1O2 [sterigmatocystin] | – | – | – | – | showed cytotoxicity | not | –
aflatoxin B1 | did not decrease | concentration-dependent decrease | no decrease | time- and concentration-dependent decreases | showed cytotoxicity | not | first IC50 value [5]: not observed; decrease of bioluminescence intensity under CYP3A4 inhibitor [6]: partially diminished; IC50 ([6]; read-out: first IC50 value): 7.9 µM; IC50 values during long-term culture [2]: almost unchanged; aflatoxin B1 concentration-dependent decrease of bioluminescence intensity under CYP inhibitor [2]: completely diminished
